# Test results published in US11986478B2 (priority 2021, dated 2024).
# Columns and labels:
# [1] = test system: SARS-CoV-2 variants of concern B.1.1.7 (Alpha), B.1.351 (Beta) and B.1.617.2 (Delta); assay: microbe, parasite or virus in culture; assay type: cell-based; details: Severe acute respiratory syndrome coronavirus 2, VeroE6/TMPRSS2, read-out: EC50 against SARS-CoV-2 variants of concern
# SARS2-PLpro K157A mutant = SARS2-PLpro K157A mutant (Severe acute respiratory syndrome coronavirus 2, UniProt P0DTD1, K1720A); assay type: biochemical, SARS-CoV-2
structure (smiles),measurement,setting,value
O=C(Nc1ccccc1Cl)c1sc(=S)n2c1[nH]c(=O)c1ccccc12 [Compound F0213],EC50,[1],2.2 to 4.8 µM
same,effect of K157A substitution on inhibitory potency,SARS2-PLpro K157A mutant,significantly diminished the inhibitory potency
